In patent publication US11751567B2, “Steroidal piperidone derivative, synthesis method, and use thereof” (NORTHWEST A&F UNIVERSITY, priority 2021, dated 2023):
In brackets after ≈: the same amount, converted by molar mass. Read-outs that look alike come from different tables or passages of the source.

Experiments:
Type in all cases: in vivo
wheat aphids = test: slide-dip mortality test on aphids (wheat aphids); details: 24 h, read-out: Corrected mortality (%) Wheat aphid
Procedure: (§1) Inhibitory activities of the steroidal piperidone derivatives listed in Tables 1 and 2 against Myzus persicae, Aphis citricola, Brevicoryne brassicae, and wheat aphids were determined through slide-dip method. Specific process: A specified amount of a compound to be tested was accurately weighed and dissolved with acetone as a solvent, and solutions with concentrations of 50 μg/mL and 75 μg/mL were each prepared with a 0.1% Tween-80 aqueous solution, allowed to stand at room temperature for 0.5 h until the sample was completely dissolved, and stored for later use. Then, adult aphids were fixed with double-sided tape on slides with a small brush. One end of the slide with the aphids was immersed in the test solutions for 5 seconds. The excess liquid was absorbed with absorbent paper, and the mortality rates were calculated 24 h after treatment. Acetamiprid was adopted as a positive control, and a 0.1% Tween-80 aqueous solution was adopted as a negative control. and the results are shown in Table 1.

Myzus persicae = test: slide-dip mortality test on aphids (Myzus persicae); details: 24 h, read-out: Corrected mortality (%) Myzus persicae
Procedure: as §1

Brevicoryne brassicae = test: slide-dip mortality test on aphids (Brevicoryne brassicae); details: 24 h, read-out: Corrected mortality (%) Brevicoryne brassicae
Procedure: as §1

Aphis citricola = test: slide-dip mortality and LC50 test on aphids (Aphis citricola); details: for mortality at 50 µg/mL / mortality at 75 µg/mL: 24 h, read-out: Corrected mortality (%) Aphis citricola; for LC50: read-out: LC50 of inhibitory activity against Aphis citricola
Procedure: as §1

rice planthoppers = test: foliar spray test against rice planthoppers; details: 72 h, read-out: Corrected mortality (%) rice planthoppers
Procedure: (§2) The toxic activities of the steroidal piperidone derivatives listed in Table 4 against B. tabaci were tested by a foliar spray method. Specific process: A specified amount of a compound to be tested was accurately weighed and dissolved in acetone, and solutions with concentrations of 50 μg/mL and 75 μg/mL were each prepared with a 0.1% of Tween 80 aqueous solution and stored for later use. The pesticide solution was sprayed on the back side of a cucumber leaf, the cucumber leaf was naturally dried, and B. tabaci to be tested were placed on the cucumber leaf. Thiamethoxam was used as a positive control, and acetone was used as a negative control. Several deaths were observed after 7 d of treatment, and the corrected mortality was calculated.
The toxic activities of the steroidal piperidone derivatives listed in Table 5 against rice planthoppers were tested by a foliar spray method. Imidacloprid was used as a positive control, and acetone was used as a negative control. Several deaths were observed after 3 d of treatment, and the corrected mortality was calculated.

Bemisia tabaci = test: foliar spray test on cucumber leaf against B. tabaci; details: 168 h, read-out: Corrected mortality (%) B. tabaci
Procedure: as §2

Tetranychus truncatus = test: slide dipping mortality test on mites; details: read-out: Corrected mortality (%) Tetranychus truncatus
Procedure: as §1
The inhibitory activities of the steroidal piperidone derivatives listed in Table 3 on Tetranychus truncatus were tested through slide dipping.

[1] = 50 μg/mL, slide dipping, process as for aphids
[2] = 75 μg/mL, slide dipping, process as for aphids

SMILES	mortality at 50 µg/mL (wheat aphids) [%]	mortality at 75 µg/mL (wheat aphids) [%]	mortality at 50 µg/mL (Myzus persicae) [%]	mortality at 75 µg/mL (Myzus persicae) [%]	mortality at 50 µg/mL (Brevicoryne brassicae) [%]	mortality at 75 µg/mL (Brevicoryne brassicae) [%]	mortality at 50 µg/mL (Aphis citricola) [%]	mortality at 75 µg/mL (Aphis citricola) [%]	LC50 (Aphis citricola) [mg/L]	mortality at 50 µg/mL (rice planthoppers) [%]	mortality at 75 µg/mL (rice planthoppers) [%]	mortality at 50 µg/mL (Bemisia tabaci) [%]	mortality at 75 µg/mL (Bemisia tabaci) [%]	mortality at 50 µg/mL (Tetranychus truncatus; [1]) [%]	mortality at 75 µg/mL (Tetranychus truncatus; [2]) [%]	mortality at 50 µg/mL (Tetranychus truncatus) [%]	mortality at 75 µg/mL (Tetranychus truncatus) [%]
C/C(=N\C#N)N(C)Cc1ccc(Cl)nc1 [Acetamiprid, reference compound]	95.5	100	94.3	100	94.4	100	93.3	100	9.95 (≈ 44.7 µM)								
C[C@]12CC[C@H](O)CC1CC[C@@H]1[C@@H]2CC[C@@]2(C)[C@H]1CCC(=O)N2C(=O)c1ccccc1F (some centres unmarked) [Compound (1)-1]	50	70.3	53.4	75.3	42.7	65.5	56.2	78.4		42.3	56.9						
C[C@]12CC[C@H](O)CC1CC[C@@H]1[C@@H]2CC[C@@]2(C)[C@H]1CCC(=O)N2C(=O)c1cccc(F)c1 (some centres unmarked) [Compound (1)-2]	22.1	50.4	26.1	55.1	30.3	54	39.3	61.4		52.1	60.3						
C[C@]12CC[C@H](O)CC1CC[C@@H]1[C@@H]2CC[C@@]2(C)[C@H]1CCC(=O)N2C(=O)c1ccc(F)cc1 (some centres unmarked) [Compound (1)-3]	70.5	90	69.3	89.9	64	82.8	66.3	85.2	24.6 (≈ 57.5 µM)	63.3	71.2	67.7	74.7	54.3	70.3		
C[C@]12CC[C@H](O)CC1CC[C@@H]1[C@@H]2CC[C@@]2(C)[C@H]1CCC(=O)N2C(=O)c1ccc(Cl)cc1 (some centres unmarked) [Compound (1)-4]	91	100	84.1	100	86.5	100	89.9	100	11.9 (≈ 26.8 µM)	72	80.4	72.5	87.4	64.2	88.6		
C[C@]12CC[C@H](O)CC1CC[C@@H]1[C@@H]2CC[C@@]2(C)[C@H]1CCC(=O)N2C(=O)c1cccc(Br)c1 (some centres unmarked) [Compound (1)-6]	59.9	80	60.2	77.5	51.7	73.6	44.9	78.4		45.2	59.2	56.1	67.5	24.9	55.3		
Cc1ccccc1C(=O)N1C(=O)CC[C@H]2[C@@H]3CCC4C[C@@H](O)CC[C@]4(C)[C@H]3CC[C@@]21C (some centres unmarked) [Compound (1)-7]										36.2	45.8						
Cc1cccc(C(=O)N2C(=O)CC[C@H]3[C@@H]4CCC5C[C@@H](O)CC[C@]5(C)[C@H]4CC[C@@]32C)c1 (some centres unmarked) [Compound (1)-8]										38.4	53.6						
C[C@]12CC[C@H](O)CC1CC[C@@H]1[C@@H]2CC[C@@]2(C)[C@H]1CCC(=O)N2C(=O)c1cccc(C(F)(F)F)c1 (some centres unmarked) [Compound (1)-11]	30.4	56.5	25	52.8	24.7	50.6	25.8	54.5									
C[C@]12CC[C@H](O)CC1CC[C@@H]1[C@@H]2CC[C@@]2(C)[C@H]1CCC(=O)N2C(=O)c1ccc(C(F)(F)F)cc1 (some centres unmarked) [Compound (1)-12]	24.8	55.7	30.7	57.3	29.2	57.5	32.6	65.9									
C[C@]12CC[C@H](O)CC1=CC[C@@H]1[C@@H]2CC[C@@]2(C)[C@H]1CCC(=O)N2C(=O)c1ccccc1Br [Compound (2)-5]														43.5	69.6		
Cc1ccccc1C(=O)N1C(=O)CC[C@H]2[C@@H]3CC=C4C[C@@H](O)CC[C@]4(C)[C@H]3CC[C@@]21C [Compound (2)-7]	96	100	93.2	100	94.4	100	92.1	100	10.3 (≈ 24.4 µM)	64.2	79.2	76.3	88.5	66.8	88.5		
COc1ccc(C(=O)N2C(=O)CC[C@H]3[C@@H]4CC=C5C[C@@H](O)CC[C@]5(C)[C@H]4CC[C@@]32C)cc1 [Compound (2)-10]										33.2	36	48.5	69.1				
C[C@]12CC[C@H](O)CC1=CC[C@@H]1[C@@H]2CC[C@@]2(C)[C@H]1CCC(=O)N2C(=O)c1cccc(C(F)(F)F)c1 [Compound (2)-11]	40	59.7	40.9	66.3	42.7	65.5	44.9	72.7		35.3	57.8	45.4	58.3				
C[C@]12CC[C@H](O)CC1=CC[C@@H]1[C@@H]2CC[C@@]2(C)[C@H]1CCC(=O)N2C(=O)c1ccc([N+](=O)[O-])cc1 [Compound (2)-13]														33.2	56.8		
O=[N+]([O-])NC1=NCCN1Cc1ccc(Cl)nc1 [Imidacloprid, reference compound]										61.2	82.3						
CC(C)(C)c1ccc(CSc2cnn(C(C)(C)C)c(=O)c2Cl)cc1 [Pyridaben, reference compound]																65.3	89.3
CN1COCN(Cc2cnc(Cl)s2)/C1=N\[N+](=O)[O-] [Thiamethoxam, reference compound]												59.5	76.2				
